# Results from patent US9914730B2, “Azaquinazoline inhibitors of Atypical protein Kinase C” (Ignyta, Inc., priority 2012, dated 2018).
# Target: T1, full-length human PKCι (Homo sapiens, UniProt P41743)
# T1 construct: Recombinant, full-length human PKCι expressed in Sf21 insect cells is also commercially available; purchased; host or cells: Sf21 insect cells
# T1 sequence (P41743 1-596): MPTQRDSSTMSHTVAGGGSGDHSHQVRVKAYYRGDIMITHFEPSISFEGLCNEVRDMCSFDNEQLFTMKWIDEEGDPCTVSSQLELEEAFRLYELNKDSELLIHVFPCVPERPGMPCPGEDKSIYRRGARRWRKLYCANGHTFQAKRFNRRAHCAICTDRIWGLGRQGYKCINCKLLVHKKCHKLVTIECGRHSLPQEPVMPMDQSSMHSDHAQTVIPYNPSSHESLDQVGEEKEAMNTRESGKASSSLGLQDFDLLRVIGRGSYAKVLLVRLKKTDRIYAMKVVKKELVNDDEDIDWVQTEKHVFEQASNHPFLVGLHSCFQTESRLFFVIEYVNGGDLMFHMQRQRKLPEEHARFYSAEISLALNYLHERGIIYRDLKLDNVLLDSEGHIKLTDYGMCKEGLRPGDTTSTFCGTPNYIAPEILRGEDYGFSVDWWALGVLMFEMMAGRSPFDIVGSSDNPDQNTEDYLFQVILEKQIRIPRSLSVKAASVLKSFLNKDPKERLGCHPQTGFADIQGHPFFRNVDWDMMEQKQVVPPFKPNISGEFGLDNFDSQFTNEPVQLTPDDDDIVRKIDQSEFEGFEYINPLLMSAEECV
# Experiment: PKCι IC50 IMAP assay, full-length PKCι at 150 μM ATP
# Assay type: biochemical
# Settings: read-out: IC50 in IMAP assay against full length PKCi at 150 μM ATP
# Method in brief: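 Dose-response IC50 values come from IMAP fluorescence polarisation after 60 min room-temperature turnover of 100 nM FAM peptide by ~15 pM insect-cell-expressed full-length PKCι at 150 μM ATP (5× KM^APP), normalised to no-compound and no-enzyme controls.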
row,SMILES,IC50 [nM]
1,"CN1CCN(c2cccc(Nc3cc(-c4nc(N5CCN(C(N)=O)CC5)c5c(C6CC6)cncc5n4)ccn3)c2)CC1 [Example 687, 4-(5-Cyclopropyl-2-{2-[3-(4-methyl-piperazin-1-yl)-phenylamino]-pyridin-4-yl}-pyrido[3,4-d]pyrimidin-4-yl)-piperazine-1-carboxylic acid amide]",100 to 1000
2,"CN1CCN(c2cccc(Nc3cc(-c4nc(N5CCC(O)CC5)c5c(C6CC6)cncc5n4)ccn3)c2)CC1 [Example 688, 1-(5-Cyclopropyl-2-{2-[3-(4-methyl-piperazin-1-yl)-phenylamno]-pyridin-4-yl}-pyrido[3,4-d]pyrimidin-4-yl)-piperidin-4-ol]",< 100
3,"Fc1cc(-c2nc(N3CCNCC3)c3c(C4CC4)cncc3n2)ccn1 [Example 689, 5-Cyclopropyl-2-(2-fluoro-pyridin-4-yl)-4-piperazin-1-yl-pyrido[3,4-d]pyrimidine]",< 100
4,"C[C@H]1CN(c2nc(-c3ccnc(Nc4ccc(F)cc4)c3)nc3cncc(C4CC4)c23)CCN1 [Example 693, {4-[5-Cyclopropyl-4-((S)-3-methyl-piperazin-1-yl)-pyrido[3,4-d]pyrimidin-2-yl]-pyridin-2-yl}-(4-fluoro-phenyl)-amine]",< 100
5,"c1ccc(Nc2cc(-c3nc(NC[C@@H]4CCCN4)c4c(C5CC5)cncc4n3)ccn2)cc1 [Example 697, [5-Cyclopropyl-2-(2-phenylamino-pyridin-4-yl)-pyrido[3,4-d]pyrimidin-4-yl]-(S)-1-pyrrolidin-2-ylmethyl-amine]",100 to 1000
6,"Fc1ccc(Nc2cc(-c3nc(N4CCCNCC4)c4c(C5CC5)cncc4n3)ccn2)cc1 [Example 699, [4-(5-Cyclopropyl-4-[1,4]diazepan-1-yl-pyrido[3,4-d]pyrimidin-2-yl)-pyridin-2-yl]-(4-fluoro-phenyl)-amine]",< 100
7,"c1cc(-c2nc(N3CCNCC3)c3c(C4CC4)cncc3n2)cc(NC23CC(C2)C3)n1 [Example 700, Bicyclo[1.1.1]pent-1-yl-[4-(5-cyclopropyl-4-piperazin-1-yl-pyrido[3,4-d]pyrimidin-2-yl)-pyridin-2-yl]-amine]",< 100
8,"Fc1c(-c2nc(N3CCNCC3)c3c(C4CC4)cncc3n2)ccnc1Nc1ccccc1 [Example 701, [4-(5-Cyclopropyl-4-piperazin-1-yl-pyrido[3,4-d]pyrimidin-2-yl)-3-fluoro-pyridin-2-yl]-phenyl-amine]",10000 to 40000
9,"F[C@H]1C[C@@H](Nc2cc(-c3nc(N4CCNCC4)c4c(C5CC5)cncc4n3)ccn2)C1 [Example 703, (+/−)cis-[4-(5-Cyclopropyl-4-piperazin-1-yl-pyrido[3,4-d]pyrimidin-2-yl)-pyridin-2-yl]-(3-fluoro-cyclobutyl)-amine]",< 100
10,"FC(F)(F)C(Nc1cc(-c2nc(N3CCNCC3)c3c(C4CC4)cncc3n2)ccn1)c1ccccc1 (centres unmarked) [Example 706, [4-(5-Cyclopropyl-4-piperazin-1-yl-pyrido[3,4-d]pyrimidin-2-yl)-pyridin-2-yl]-(2,2,2-trifluoro-1-phenyl-ethyl)-amine]",100 to 1000
11,"O=C(O)Cc1ccc(Nc2cc(-c3nc(N4CCNCC4)c4c(C5CC5)cncc4n3)ccn2)cc1 [Example 709, {4-[4-(5-Cyclopropyl-4-piperazin-1-yl-pyrido[3,4-d]pyrimidin-2-yl)-pyridin-2-ylamino]-phenyl}-acetic acid]",100 to 1000
12,CN1CCN(c2cccc(Nc3cc(-c4nc(N5CCCCC5)c5c(C6CC6)cncc5n4)ccn3)c2)CC1 [Example 710],100 to 1000
13,"N#Cc1cccc(Nc2cc(-c3nc(N4CC[C@H](O)[C@H](O)C4)c4c(C5CC5)cncc4n3)ccn2)c1 [Example 711, 3-{4-[5-Cyclopropyl-4-((3R,4S)-3,4-dihydroxy-piperidin-1-yl)-pyrido[3,4-d]pyrimidin-2-yl]-pyridin-2-ylamino}-benzonitrile]",100 to 1000
14,"c1ccc2c(c1)OCCC2Nc1cc(-c2nc(N3CCNCC3)c3c(C4CC4)cncc3n2)ccn1 (centres unmarked) [Example 712, Chroman-4-yl-[4-(5-cyclopropyl-4-piperazin-1-yl-pyrido[3,4-d]pyrimidin-2-yl)-pyridin-2-yl]-amine]",< 100
15,"CC(C)c1ccc(Nc2cc(-c3nc(N4CCNCC4)c4c(C5CC5)cncc4n3)ccn2)c(F)c1 [Example 714, [4-(5-Cyclopropyl-4-piperazin-1-yl-pyrido[3,4-d]pyrimidin-2-yl)-pyridin-2-yl]-(2-fluoro-4-isopropyl-phenyl)-amine]",< 100
16,"CC(C)c1ccc(F)c(Nc2cc(-c3nc(N4CCNCC4)c4c(C5CC5)cncc4n3)ccn2)c1 [Example 716, [4-(5-Cyclopropyl-4-piperazin-1-yl-pyrido[3,4-d]pyrimidin-2-yl)-pyridin-2-yl]-(2-fluoro-5-isopropyl-phenyl)-amine]",< 100

# Second part, the molecule after the results:
row,IC50 [nM],SMILES
1,< 100,"NC1CCN(c2nc(-c3ccnc(Nc4c(F)cccc4F)c3)nc3cncc(C4CC4)c23)CC1 [Example 690, {4-[4-(4-Amino-piperidin-1-yl)-5-cyclopropyl-pyrido[3,4-d]pyrimidin-2-yl]-pyridin-2-yl}-(2,6-difluoro-phenyl)-amine]"
2,< 100,"C[C@H]1CN(c2nc(-c3ccnc(Nc4ccccc4F)c3)nc3cncc(C4CC4)c23)CCN1 [Example 691, {4-[5-Cyclopropyl-4-((S)-3-methyl-piperazin-1-yl)-pyrido[3,4-d]pyrimidin-2-yl]-pyridin-2-yl}-(2-fluoro-phenyl)-amine]"
3,< 100,"C[C@H]1CN(c2nc(-c3ccnc(Nc4c(F)cccc4F)c3)nc3cncc(C4CC4)c23)CCN1 [Example 692, {4-[5-Cyclopropyl-4-((S)-3-methyl-piperazin-1-yl)-pyrido[3,4-d]pyrimidin-2-yl]-pyridin-2-yl}-(2,6-difluoro-phenyl)-amine]"
4,< 100,"C[C@H]1CN(c2nc(-c3ccnc(Nc4nc(F)ccc4F)c3)nc3cncc(C4CC4)c23)CCN1 [Example 694, {4-[5-Cyclopropyl-4-((S)-3-methyl-piperazin-1-yl)-pyrido[3,4-d]pyrimidin-2-yl]-pyridin-2-yl}-(3,6-difluoro-pyridin-2-yl)-amine]"
5,< 100,"NCC1CCN(c2nc(-c3ccnc(Nc4c(F)cccc4F)c3)nc3cncc(C4CC4)c23)CC1 [Example 696, {4-[4-(4-Aminomethyl-piperidin-1-yl)-5-cyclopropyl-pyrido[3,4-d]pyrimidin-2-yl]-pyridin-2-yl}-(2,6-difluoro-phenyl)-amine]"
6,100 to 1000,"Fc1cccc(F)c1Nc1cc(-c2nc(NC[C@@H]3CCCN3)c3c(C4CC4)cncc3n2)ccn1 [Example 698, {5-Cyclopropyl-2-[2-(2,6-difluoro-phenylamino)-pyridin-4-yl]-pyrido[3,4-d]pyrimidin-4-yl}-(S)-1-pyrrolidin-2-ylmethyl-amine]"
7,100 to 1000,"Fc1cccc(F)c1Nc1cc(-c2nc(N3CCCNCC3)c3c(C4CC4)cncc3n2)ccn1 [Example 702, [4-(5-Cyclopropyl-4-[1,4]diazepan-1-yl-pyrido[3,4-d]pyrimidin-2-yl)-pyridin-2-yl]-(2,6-difluoro-phenyl)-amine]"
8,< 100,"Fc1cnc(Nc2cc(-c3nc(N4CCNCC4)c4c(C5CC5)cncc4n3)ccn2)c(F)c1 [Example 704, [4-(5-Cyclopropyl-4-piperazin-1-yl-pyrido[3,4-d]pyrimidin-2-yl)-pyridin-2-yl]-(3,5-difluoro-pyridin-2-yl)-amine]"
9,< 100,"Fc1cncc(F)c1Nc1cc(-c2nc(N3CCNCC3)c3c(C4CC4)cncc3n2)ccn1 [Example 705, [4-(5-Cyclopropyl-4-piperazin-1-yl-pyrido[3,4-d]pyrimidin-2-yl)-pyridin-2-yl]-(3,5-difluoro-pyridin-4-yl)-amine]"
10,10000 to 40000,"CNC(=O)C1CCCN(c2nc(-c3ccnc(Nc4c(F)cccc4F)c3)nc3cncc(C4CC4)c23)C1 (centres unmarked) [Example 707, 1-{5-Cyclopropyl-2-[2-(2,6-difluoro-phenylamino)-pyridin-4-yl]-pyrido[3,4-d]pyrimidin-4-yl}-piperidine-3-carboxylic acid methylamide]"
11,100 to 1000,"NC1CCN(c2nc(-c3ccnc(Nc4c(F)cccc4F)c3)nc3cncc(C4CC4)c23)C1 (centres unmarked) [Example 708, {4-[4-(3-Amino-pyrrolidin-1-yl)-5-cyclopropyl-pyrido[3,4-d]pyrimidin-2-yl]-pyridin-2-yl}-(2,6-difluoro-phenyl)-amine]"
12,100 to 1000,"CC(=O)NC1CCN(c2nc(-c3ccnc(Nc4c(F)cccc4F)c3)nc3cncc(C4CC4)c23)C1 (centres unmarked) [Example 713, N-(1-{5-Cyclopropyl-2-[2-(2,6-difluoro-phenylamino)-pyridin-4-yl]-pyrido[3,4-d]pyrimidin-4-yl}-pyrrolidin-3-yl)-acetamide]"
13,< 100,"CCc1ccc(F)c(Nc2cc(-c3nc(N4CCNCC4)c4c(C5CC5)cncc4n3)ccn2)c1 [Example 715, [4-(5-Cyclopropyl-4-piperazin-1-yl-pyrido[3,4-d]pyrimidin-2-yl)-pyridin-2-yl]-(5-ethyl-2-fluoro-phenyl)-amine]"
